Measured values taken from US20240277682A1, “PHARMACEUTICAL HYDRONIDONE FORMULATIONS FOR DISEASES” (Gyre Therapeutics, Inc., priority 2021, published 2024).

Legend:
liver fibrosis = assay: HSA-induced and DMN-induced liver fibrosis in rats; type: in vivo
Protocol: Hydronidone anti-fibrotic effects were evaluated in several animal models of liver fibrosis, such as human serum albumin (HSA)-induced liver fibrosis in rats, dimethyl nitrosamine (DMN)-induced liver fibrosis in rats, and carbon tetrachloride (CCl4)-induced liver fibrosis in mice. […] In the CCl4-induced liver fibrosis in mice, Hydronidone effects were the most prominent at the doses of 3-10 mg/kg/day, although some effects were also shown at the dose of 1 mg/kg/day. In some embodiments, this dose range corresponds to human equivalent dose (HED) range of 15-50 mg. […] The HED of these rat doses are in the range of 100-2,400 mg which were all tested as safe in Phase I clinical trials of Hydronidone, with the 100 mg dose being […] the maximum daily dose of 360 mg (administered as 120 mg TID) administered to the subjects with liver fibrosis due to chronic Hepatitis B in the ongoing Phase II clinical study of efficacy and safety of Hydronidone in China.

human CYP 2 D6 = human CYP 2 D6 (Homo sapiens, UniProt P10635); assay: CYP450 inhibition, fluorescence of metabolic substrates
Protocol: (§1) In vitro study investigated whether Hydronidone is inhibitor for human cytochrome P450 (CYP450). The effects of different Hydronidone concentrations were determined by the fluorescence intensity of metabolic substrates of CYP1A2, 2C9, 2C19, 2 D6 and 3A4, produced under the effect of the relevant enzyme. The respective IC50 value were calculated in the event of observed inhibition with hydronidone.

human CYP 2C19 = human CYP 2C19 (Homo sapiens, UniProt P33261); assay: as above
Protocol: as §1

human CYP 3A4 = human CYP 3A4 (Homo sapiens, UniProt P08684); assay: as above
Protocol: as §1

human CYP 2C9 = human CYP 2C9 (Homo sapiens, UniProt P11712); assay: as above
Protocol: as §1

[1] = test system: liver fibrosis due to chronic Hepatitis B; assay: Phase II study in subjects with liver fibrosis due to chronic Hepatitis B, 52 weeks, Entecavir basic treatment (Examples 11-21); type: in vivo, human
Protocol: This is a Phase II, randomized, double-blind, placebo-controlled, Entecavir-Basic Treatment, multi-center, dose-ranging study on the efficacy and safety of Hydronidone when administered to Chinese subjects with liver fibrosis due to chronic Hepatitis B for 52 consecutive weeks.
Approximately 240 eligible subjects, approximately 60 subjects per dose cohort, are planned to be enrolled in the study and treated daily with Hydronidone oral doses of 30 mg, 60 mg. or 120 mg TID (total daily doses of […], […], and 360 mg, respectively) for 52 consecutive weeks or placebo, concomitantly with basic anti-viral treatment with Entecavir at a daily dose of 0.5 mg. In parallel, a group of 12 subjects will be evaluated for PK.

SMILES: Cc1ccc(=O)n(-c2ccc(O)cc2)c1 [Hydronidone, N-(4-hydroxyphenyl)-5-Methyl-2-pyridone]
- anti-fibrotic effect (level of fibrosis, hydroxyproline, ALT, AST) (liver fibrosis; HSA- and DMN-induced liver fibrosis in rats): potent anti-fibrotic effect
- anti-fibrotic effect compared with silymarin extract (positive control) (liver fibrosis; rats): comparable or more potent than silymarin extract
- dose range in which anti-fibrotic effects were shown (liver fibrosis; rats, depending on the model): 10 to 250 mg/kg/day
- IC50 (human CYP 2 D6): > 100 µM
- IC50 (human CYP 2C19): > 100 µM
- IC50 (human CYP 3A4): > 100 µM
- IC50 (human CYP 2C9): > 100 µM
- Ishak score improvement in patients of significant fibrosis ([1]; 52 weeks): consistent with the results of primary endpoint analysis
- improvement in HBeAg(−) vs HBeAg(+) patients ([1]; 52 weeks): better than in HbeAg(+) patients
- response in HBV DNA+ patients ([1]; HBV DNA+ after 52 weeks Entecavir therapy, Ishak>3): all patients (Ishak>3) responded
- Ishak score ≥1 (primary endpoint) ([1]; after 52 weeks of therapy, with Entecavir): significantly lower the Ishak score
- intra group Ishak score change ([1]; after 52 weeks, all drug groups): statistically significant decline of Ishak score≥1
- change of liver stiffness measurement LSM ([1]; after 52 weeks, all drug groups, intra group P<0.01): decline of LSM(kPa)
- Ishak score changes ([1]; baseline HBeAg (+) patients after 52 weeks): statistical significant changes when dose groups are combined
- Ishak score changes ([1]; baseline HBeAg (−) patients after 52 weeks): statistical significant changes when dose groups are combined
- fibrosis in patients of significant fibrosis and cirrhosis ([1]; combination of 270 mg and 360 mg groups): can improve fibrosis
- fibrosis in patients of significant fibrosis and cirrhosis ([1]; combination of all drug groups): can improve fibrosis
- LSM scores ([1]; combination of drug groups, Advanced Fibrosis (Ishak≥4)): showed statistical significance
- best dose group (patients of significant fibrosis) ([1]; total daily dose, 52 weeks): 270 mg
